Experimental data reported in patent publication US4374138A, “Antibacterial amide compounds, compositions, and methods of use” (Warner-Lambert Company, priority 1981, dated 1983).
In brackets after ≈: the same amount, converted by molar mass.

Legend:
Type in all cases: cell-based
Prot. Vulg. 1810 = test: Minimal Inhibitory Concentration, Prot. Vulg. 1810
E. Coli Brig = test: Minimal Inhibitory Concentration, E. Coli Brig; conditions: Escherichia coli
Pseudo. Aeru BRK = test: Minimal Inhibitory Concentration, Pseudo. Aeru BRK
Pseudo. Aeru UI-18 = test: Minimal Inhibitory Concentration, Pseudo. Aeru UI-18
E. Coli Vogel = test: Minimal Inhibitory Concentration, E. Coli Vogel; conditions: Escherichia coli
Staph Aureus UC-76 = test: Minimal Inhibitory Concentration, Staph Aureus UC-76; conditions: Staphylococcus aureus, UC76
Entero C. IMM-11 = test: Minimal Inhibitory Concentration, Entero C. IMM-11
Serr. Mar. IMM-16 = test: Minimal Inhibitory Concentration, Serr. Mar. IMM-16
Klebs. Pneu. MGH-2 = test: Minimal Inhibitory Concentration, Klebs. Pneu. MGH-2
Pseudo. Aeru 28 = test: Minimal Inhibitory Concentration, Pseudo. Aeru 28

Row | Compound | MIC (Prot. Vulg. 1810) [µg/mL] | MIC (E. Coli Brig) [µg/mL] | MIC (Pseudo. Aeru BRK) [µg/mL] | MIC (Pseudo. Aeru UI-18) [µg/mL] | MIC (E. Coli Vogel) [µg/mL] | MIC (Staph Aureus UC-76) [µg/mL] | MIC (Entero C. IMM-11) [µg/mL] | MIC (Serr. Mar. IMM-16) [µg/mL] | MIC (Klebs. Pneu. MGH-2) [µg/mL] | MIC (Pseudo. Aeru 28) [µg/mL]
1 | CCOC(=O)CNC(=O)Nc1ccc2[nH]c(=O)c(C(=O)N[C@@H](C(=O)N[C@@H]3C(=O)N4[C@@H]3SC(C)(C)[C@@H]4C(=O)O)c3ccc(O)cc3)cc2c1 | 6.3 (≈ 9.26 µM) | 12.5 (≈ 18.4 µM) | 3.1 (≈ 4.55 µM) | 3.1 (≈ 4.55 µM) | 6.3 (≈ 9.26 µM) | 1.6 (≈ 2.35 µM) | 12.5 (≈ 18.4 µM) | 12.5 (≈ 18.4 µM) | 12.5 (≈ 18.4 µM) | 3.1 (≈ 4.55 µM)
2 | CCNC(=O)Nc1ccc2[nH]c(=O)c(C(=O)N[C@@H](C(=O)N[C@@H]3C(=O)N4[C@@H]3SC(C)(C)[C@@H]4C(=O)O)c3ccc(O)cc3)cc2c1 [A CH3 CH2, N-[6-[[(Ethylamino)carbonyl]amino]-1,2-dihydro-2-oxo-3-quinolinylcarbonyl]amoxicillin] | 1.6 (≈ 2.57 µM) | 3.1 (≈ 4.98 µM) | 1.6 (≈ 2.57 µM) | 1.6 (≈ 2.57 µM) | 1.6 (≈ 2.57 µM) | 0.4 (≈ 0.642 µM) | 3.1 (≈ 4.98 µM) | 6.3 (≈ 10.1 µM) | 6.3 (≈ 10.1 µM) | 0.4 (≈ 0.642 µM)
3 | CC1(C)S[C@@H]2[C@H](NC(=O)[C@H](NC(=O)c3cc4cc(NC(=O)NCC(N)=O)ccc4[nH]c3=O)c3ccc(O)cc3)C(=O)N2[C@H]1C(=O)O | 1.6 (≈ 2.46 µM) | 6.3 (≈ 9.67 µM) | 0.8 (≈ 1.23 µM) | 1.6 (≈ 2.46 µM) | 1.6 (≈ 2.46 µM) | 0.8 (≈ 1.23 µM) | 6.3 (≈ 9.67 µM) | 12.5 (≈ 19.2 µM) | 12.5 (≈ 19.2 µM) | 0.8 (≈ 1.23 µM)

Now from value to molecule:

Row | MIC (Prot. Vulg. 1810) [µg/mL] | MIC (E. Coli Brig) [µg/mL] | MIC (Pseudo. Aeru BRK) [µg/mL] | MIC (Pseudo. Aeru UI-18) [µg/mL] | MIC (E. Coli Vogel) [µg/mL] | MIC (Staph Aureus UC-76) [µg/mL] | MIC (Entero C. IMM-11) [µg/mL] | MIC (Serr. Mar. IMM-16) [µg/mL] | MIC (Klebs. Pneu. MGH-2) [µg/mL] | MIC (Pseudo. Aeru 28) [µg/mL] | Compound
4 | 1.6 (≈ 2.35 µM) | 6.3 (≈ 9.27 µM) | 1.6 (≈ 2.35 µM) | 1.6 (≈ 2.35 µM) | 1.6 (≈ 2.35 µM) | 0.8 (≈ 1.18 µM) | 3.1 (≈ 4.56 µM) | 12.5 (≈ 18.4 µM) | 12.5 (≈ 18.4 µM) | 1.6 (≈ 2.35 µM) | CCNC(=O)CNC(=O)Nc1ccc2[nH]c(=O)c(C(=O)N[C@@H](C(=O)N[C@@H]3C(=O)N4[C@@H]3SC(C)(C)[C@@H]4C(=O)O)c3ccc(O)cc3)cc2c1
5 | 0.8 (≈ 1.28 µM) | 6.3 (≈ 10.1 µM) | 0.4 (≈ 0.642 µM) | 3.1 (≈ 4.98 µM) | 0.4 (≈ 0.642 µM) | 0.8 (≈ 1.28 µM) | 3.1 (≈ 4.98 µM) | 1.6 (≈ 2.57 µM) | 3.1 (≈ 4.98 µM) | 0.8 (≈ 1.28 µM) | CCNC(=O)Nc1ccc2[nH]cc(C(=O)N[C@@H](C(=O)N[C@@H]3C(=O)N4[C@@H]3SC(C)(C)[C@@H]4C(=O)O)c3ccc(O)cc3)c(=O)c2c1 [B CH3 CH2, N-[6-[[(Ethylamino)carbonyl]amino]-1,4-dihydro-4-oxo-3-quinolinylcarbonyl]amoxicillin]
